Experimental data reported in article PMC5218480 (PLoS ONE, 2017).

System: MV-4-11 cells
Assay: Gene expression microarray analysis (Affymetrix PrimeView) and GSEA
Type: cell-based, human
Design: RFU PODN (11730768_x_at) / Fold change /veh PODN (11730768_x_at) / RFU LINC00158 (11744669_a_at) / Fold change /veh LINC00158 (11744669_a_at) / RFU DUSP10 (11751237_a_at) / Fold change /veh DUSP10 (11751237_a_at) / RFU ID3 (11757404_x_at) / Fold change /veh ID3 (11757404_x_at) / RFU PLEKHG5 (11737974_s_at) / Fold change /veh PLEKHG5 (11737974_s_at) / RFU LRRC4B (11730491_at) / Fold change /veh LRRC4B (11730491_at) / RFU GIMAP4 (11747438_a_at) / Fold change /veh GIMAP4 (11747438_a_at) / RFU KRT8 (11758183_x_at) / Fold change /veh KRT8 (11758183_x_at) / RFU CNN1 (11734310_a_at) / Fold change /veh CNN1 (11734310_a_at) / RFU VPS37D (11726825_at) / Fold change /veh VPS37D (11726825_at) / RFU C10orf10 (11716522_x_at) / Fold change /veh C10orf10 (11716522_x_at) / RFU KIR2DL2 /// KIR2DL4 /// KIR2DL5A /// KIR2DL5B /// KIR2DS1 /// KIR2DS2 /// KIR2DS3 /// KIR2DS4 /// KIR3DL3 /// KIR3DL3 /// KIR3DS1 (11738374_at) / Fold change /veh KIR2DL2 /// KIR2DL4 /// KIR2DL5A /// KIR2DL5B /// KIR2DS1 /// KIR2DS2 /// KIR2DS3 /// KIR2DS4 /// KIR3DL3 /// KIR3DL3 /// KIR3DS1 (11738374_at) / RFU C1QL1 (11718748_at) / Fold change /veh C1QL1 (11718748_at) / RFU TMPRSS4 (11747572_a_at) / Fold change /veh TMPRSS4 (11747572_a_at) / RFU HAMP (11756126_x_at) / Fold change /veh HAMP (11756126_x_at) / RFU RNFT2 (11725882_a_at) / Fold change /veh RNFT2 (11725882_a_at) / RFU NR4A2 (11747474_a_at) / Fold change /veh NR4A2 (11747474_a_at) / RFU ABCC12 (11746883_a_at) / Fold change /veh ABCC12 (11746883_a_at) / RFU TMEM136 (11760407_x_at) / Fold change /veh TMEM136 (11760407_x_at) / RFU CLDN22 /// WWC2 (11732394_at) / Fold change /veh CLDN22 /// WWC2 (11732394_at) / RFU HLA-DPB1 (11760878_x_at) / Fold change /veh HLA-DPB1 (11760878_x_at) / RFU SPINT1 (11716480_a_at) / Fold change /veh SPINT1 (11716480_a_at) / RFU GAP43 (11754022_s_at) / Fold change /veh GAP43 (11754022_s_at) / RFU A4GNT (11735810_at) / Fold change /veh A4GNT (11735810_at) / RFU PRB3 (11715151_x_at) / Fold change /veh PRB3 (11715151_x_at) / RFU TUBB4B (11761932_at) / Fold change /veh TUBB4B (11761932_at) / RFU CAPN14 (11732068_a_at) / Fold change /veh CAPN14 (11732068_a_at) / RFU TMCC2 (11721928_a_at) / Fold change /veh TMCC2 (11721928_a_at) / RFU IRGQ (11745062_a_at) / Fold change /veh IRGQ (11745062_a_at) / RFU FAM174B (11720279_a_at) / Fold change /veh FAM174B (11720279_a_at) / RFU TMPRSS4 (11748680_a_at) / Fold change /veh TMPRSS4 (11748680_a_at) / RFU FAM212B (11763350_a_at) / Fold change /veh FAM212B (11763350_a_at) / RFU PLEKHG5 (11743358_a_at) / Fold change /veh PLEKHG5 (11743358_a_at) / RFU ZSCAN30 (11745921_a_at) / Fold change /veh ZSCAN30 (11745921_a_at) / RFU CMKLR1 (11741424_a_at) / Fold change /veh CMKLR1 (11741424_a_at) / RFU LOC101060620 /// MAPK8IP1 (11723275_at) / Fold change /veh LOC101060620 /// MAPK8IP1 (11723275_at) / RFU SPTSSB (11747773_x_at) / Fold change /veh SPTSSB (11747773_x_at) / RFU PRSS12 (11739890_at) / Fold change /veh PRSS12 (11739890_at) / RFU BIN1 (11741810_x_at) / Fold change /veh BIN1 (11741810_x_at) / RFU WNT11 (11732464_a_at) / Fold change /veh WNT11 (11732464_a_at) / RFU C10orf10 (11716521_a_at) / Fold change /veh C10orf10 (11716521_a_at) / RFU C5orf56 (11738089_at) / Fold change /veh C5orf56 (11738089_at) / RFU CYB561 (11721691_x_at) / Fold change /veh CYB561 (11721691_x_at) / RFU ANKRD19P (11752326_a_at) / Fold change /veh ANKRD19P (11752326_a_at) / RFU OR2T12 /// OR2T33 /// OR2T8 (11738714_s_at) / Fold change /veh OR2T12 /// OR2T33 /// OR2T8 (11738714_s_at) / RFU VCAN (11748164_a_at) / Fold change /veh VCAN (11748164_a_at) / RFU JSRP1 (11732532_at) / Fold change /veh JSRP1 (11732532_at) / RFU KRTAP10-11 (11738290_x_at) / Fold change /veh KRTAP10-11 (11738290_x_at) / RFU MYO3A (11730013_a_at) / Fold change /veh MYO3A (11730013_a_at) / RFU EBF3 (11725865_a_at) / Fold change /veh EBF3 (11725865_a_at) / RFU CAMK2N1 (11719241_x_at) / Fold change /veh CAMK2N1 (11719241_x_at) / RFU C5orf56 (11738088_a_at) / Fold change /veh C5orf56 (11738088_a_at) / RFU OLFML3 (11715873_a_at) / Fold change /veh OLFML3 (11715873_a_at) / RFU LOC100653217 /// NTM (11731650_a_at) / Fold change /veh LOC100653217 /// NTM (11731650_a_at) / RFU MAPK11 (11762145_a_at) / Fold change /veh MAPK11 (11762145_a_at) / RFU FIZ1 (11724087_x_at) / Fold change /veh FIZ1 (11724087_x_at) / RFU OASL (11726364_x_at) / Fold change /veh OASL (11726364_x_at) / RFU SOX15 (11748057_x_at) / Fold change /veh SOX15 (11748057_x_at) / RFU CD79A (11719716_a_at) / Fold change /veh CD79A (11719716_a_at) / RFU HIST1H1D (11736915_at) / Fold change /veh HIST1H1D (11736915_at) / RFU CASKIN2 (11723855_a_at) / Fold change /veh CASKIN2 (11723855_a_at) / RFU LOC730098 (11760151_x_at) / Fold change /veh LOC730098 (11760151_x_at) / RFU OR4N2 (11742367_at) / Fold change /veh OR4N2 (11742367_at) / RFU PRRT2 (11749266_a_at) / Fold change /veh PRRT2 (11749266_a_at) / RFU SNX32 (11753110_a_at) / Fold change /veh SNX32 (11753110_a_at) / RFU CDHR5 (11726645_a_at) / Fold change /veh CDHR5 (11726645_a_at) / RFU RCAN1 (11760418_a_at) / Fold change /veh RCAN1 (11760418_a_at) / RFU FAM167A (11723789_a_at) / Fold change /veh FAM167A (11723789_a_at) / RFU FAM26E (11764081_at) / Fold change /veh FAM26E (11764081_at) / RFU ISYNA1 (11749810_s_at) / Fold change /veh ISYNA1 (11749810_s_at) / RFU ACY1 (11761880_at) / Fold change /veh ACY1 (11761880_at) / RFU 11764098_at / Fold change /veh 11764098_at / RFU SAMD14 (11745864_x_at) / Fold change /veh SAMD14 (11745864_x_at) / RFU NPB (11741838_a_at) / Fold change /veh NPB (11741838_a_at) / RFU TMPRSS6 (11731388_a_at) / Fold change /veh TMPRSS6 (11731388_a_at) / RFU KRTAP10-2 (11738614_at) / Fold change /veh KRTAP10-2 (11738614_at) / RFU ARHGAP8 /// PRR5-ARHGAP8 (11727945_x_at) / Fold change /veh ARHGAP8 /// PRR5-ARHGAP8 (11727945_x_at) / RFU KRTAP5-7 /// NADSYN1 (11734609_at) / Fold change /veh KRTAP5-7 /// NADSYN1 (11734609_at) / RFU RASL12 (11751679_a_at) / Fold change /veh RASL12 (11751679_a_at) / RFU CDKN2B (11736163_a_at) / Fold change /veh CDKN2B (11736163_a_at) / RFU PRF1 (11729649_at) / Fold change /veh PRF1 (11729649_at) / RFU, ZNF638 /// ZNF638-IT1 / Fold change vs veh, ZNF638 /// ZNF638-IT1 / RFU, PANK3 / Fold change vs veh, PANK3 / RFU, SH3YL1 / Fold change vs veh, SH3YL1 / RFU, ZEB2 / Fold change vs veh, ZEB2 / RFU, NRIP1 / Fold change vs veh, NRIP1 / RFU, PTTG1IP / Fold change vs veh, PTTG1IP / RFU, CAPN2 / Fold change vs veh, CAPN2 / RFU, MED14 / Fold change vs veh, MED14 / RFU, SNORA58 / Fold change vs veh, SNORA58 / RFU, C1orf63 / Fold change vs veh, C1orf63 / RFU, LRRFIP1 / Fold change vs veh, LRRFIP1 / RFU, NDUFAF7 / Fold change vs veh, NDUFAF7 / RFU, SLC12A2 / Fold change vs veh, SLC12A2 / RFU, IBTK / Fold change vs veh, IBTK / RFU, ESF1 / Fold change vs veh, ESF1 / Fold change vs veh, TMEM50B / RFU, TAOK1 / Fold change vs veh, TAOK1 / RFU, ACBD3 / Fold change vs veh, ACBD3 / RFU, TMA16 / Fold change vs veh, TMA16 / RFU, RWDD3 / Fold change vs veh, RWDD3 / RFU, BCAT1 / Fold change vs veh, BCAT1 / RFU, EDEM3 / Fold change vs veh, EDEM3 / RFU, TMEM33 / Fold change vs veh, TMEM33 / RFU, WDR75 / Fold change vs veh, WDR75 / RFU, AHCTF1 / Fold change vs veh, AHCTF1 / RFU, TFRC / Fold change vs veh, TFRC / RFU, ZDHHC17 / Fold change vs veh, ZDHHC17 / RFU, NOM1 / Fold change vs veh, NOM1 / RFU, ARL8B / Fold change vs veh, ARL8B / RFU, ZBTB11 / Fold change vs veh, ZBTB11 / RFU, TAMM41 / Fold change vs veh, TAMM41 / RFU, KIAA1704 /// LOC100996395 / Fold change vs veh, KIAA1704 /// LOC100996395 / RFU, ING1 / Fold change vs veh, ING1 / RFU, TRMT61B / Fold change vs veh, TRMT61B / RFU, FUBP3 / Fold change vs veh, FUBP3 / RFU, TP53 / Fold change vs veh, TP53 / RFU, TNKS2 / Fold change vs veh, TNKS2 / RFU, ZFP14 / Fold change vs veh, ZFP14 / RFU, ACTR2 / Fold change vs veh, ACTR2 / RFU, PPP3R1 / Fold change vs veh, PPP3R1 / RFU, PIK3R1 / Fold change vs veh, PIK3R1 / RFU, HNRNPA1 / Fold change vs veh, HNRNPA1 / RFU, RNF170 / Fold change vs veh, RNF170 / RFU, ZNF28 / Fold change vs veh, ZNF28 / RFU, RNGTT / Fold change vs veh, RNGTT / RFU, OGT / Fold change vs veh, OGT / RFU, BRD1 / Fold change vs veh, BRD1 / RFU, MARS / Fold change vs veh, MARS / RFU, ZNF655 / Fold change vs veh, ZNF655 / RFU, FAHD1 / Fold change vs veh, FAHD1 / RFU, BDP1 / Fold change vs veh, BDP1 / RFU, LRRCC1 / Fold change vs veh, LRRCC1 / RFU, ARID1A / Fold change vs veh, ARID1A / RFU, ZNF146 / Fold change vs veh, ZNF146 / RFU, ZNF330 / Fold change vs veh, ZNF330 / RFU, GPN3 / Fold change vs veh, GPN3 / RFU, C9orf123 / Fold change vs veh, C9orf123 / RFU, N4BP2L2 / Fold change vs veh, N4BP2L2 / RFU, ARFIP1 / Fold change vs veh, ARFIP1 / RFU, FAM179B / Fold change vs veh, FAM179B / RFU, BCL10 / Fold change vs veh, BCL10 / RFU, UHRF1BP1L / Fold change vs veh, UHRF1BP1L / RFU, BET1 / Fold change vs veh, BET1 / RFU, CNOT2 / Fold change vs veh, CNOT2 / RFU, ZNF268 / Fold change vs veh, ZNF268 / Fold change vs veh, ZNF507 / RFU, DGCR2 / Fold change vs veh, DGCR2 / RFU, WDSUB1 / Fold change vs veh, WDSUB1 / Fold change vs veh, HSP90B1 /// MIR3652 / RFU, ADSS / Fold change vs veh, ADSS / RFU, GK / Fold change vs veh, GK / RFU, ZNF148 / Fold change vs veh, ZNF148 / RFU, TAF9 / Fold change vs veh, TAF9 / RFU, SLC1A5 / Fold change vs veh, SLC1A5 / RFU, SLMO2 / Fold change vs veh, SLMO2 / RFU, ABCC4 / Fold change vs veh, ABCC4 / RFU, LOC101060439 /// RAP1B / Fold change vs veh, LOC101060439 /// RAP1B / RFU, RFX7 / Fold change vs veh, RFX7 / RFU, GTPBP10 / Fold change vs veh, GTPBP10 / RFU, CNEP1R1 / Fold change vs veh, CNEP1R1 / RFU, BIVM-ERCC5 /// ERCC5 / Fold change vs veh, BIVM-ERCC5 /// ERCC5 / RFU, ILF3 / Fold change vs veh, ILF3 / RFU 11762660_at / Fold change /veh 11762660_at / RFU VCAN (11757783_s_at) / Fold change /veh VCAN (11757783_s_at) / RFU DDX43 (11728927_at) / Fold change /veh DDX43 (11728927_at) / RFU KRT8 (11758188_x_at) / Fold change /veh KRT8 (11758188_x_at) / RFU NKD1 (11759106_at) / Fold change /veh NKD1 (11759106_at) / RFU SRD5A1 (11742802_a_at) / Fold change /veh SRD5A1 (11742802_a_at) / RFU TPSAB1 /// TPSB2 (11721975_s_at) / Fold change /veh TPSAB1 /// TPSB2 (11721975_s_at) / RFU GSTM3 (11746129_a_at) / Fold change /veh GSTM3 (11746129_a_at) / RFU IL23R (11737362_x_at) / Fold change /veh IL23R (11737362_x_at) / RFU TMEM51 (11727254_a_at) / Fold change /veh TMEM51 (11727254_a_at) / RFU PIWIL2 (11732686_x_at) / Fold change /veh PIWIL2 (11732686_x_at) / RFU ORM1 (11744905_x_at) / Fold change /veh ORM1 (11744905_x_at) / RFU CCDC152 (11743942_at) / Fold change /veh CCDC152 (11743942_at) / RFU ECM1 (11717891_a_at) / Fold change /veh ECM1 (11717891_a_at) / RFU IL23R (11748794_a_at) / Fold change /veh IL23R (11748794_a_at) / RFU TNFAIP8L3 (11732012_x_at) / Fold change /veh TNFAIP8L3 (11732012_x_at) / RFU MBOAT4 (11741988_at) / Fold change /veh MBOAT4 (11741988_at) / RFU 11764193_at / Fold change /veh 11764193_at / RFU TMEM53 (11763286_at) / Fold change /veh TMEM53 (11763286_at) / RFU MAGEB2 (11727129_at) / Fold change /veh MAGEB2 (11727129_at) / RFU TMEM200A (11744735_a_at) / Fold change /veh TMEM200A (11744735_a_at) / RFU CCDC152 (11751479_a_at) / Fold change /veh CCDC152 (11751479_a_at) / RFU FAM211A (11726209_a_at) / Fold change /veh FAM211A (11726209_a_at) / RFU RGS16 (11746705_a_at) / Fold change /veh RGS16 (11746705_a_at) / RFU VCAN (11755009_s_at) / Fold change /veh VCAN (11755009_s_at) / RFU RHOB (11743442_s_at) / Fold change /veh RHOB (11743442_s_at) / RFU RGS16 (11720943_a_at) / Fold change /veh RGS16 (11720943_a_at) / RFU RGS16 (11720944_at) / Fold change /veh RGS16 (11720944_at) / RFU, VPS4B / Fold change vs veh, VPS4B / RFU, CREB1 / Fold change vs veh, CREB1 / RFU, DNAJC13 / Fold change vs veh, DNAJC13 / RFU, GNAQ / Fold change vs veh, GNAQ / RFU, CDK5R1 / Fold change vs veh, CDK5R1 / RFU, ZRANB3 / Fold change vs veh, ZRANB3 / RFU, CUL4A / Fold change vs veh, CUL4A / RFU, CCNY / Fold change vs veh, CCNY / RFU, UFL1 / Fold change vs veh, UFL1 / RFU, COG3 / Fold change vs veh, COG3 / RFU, DIAPH2 / Fold change vs veh, DIAPH2 / RFU, SKA2 / Fold change vs veh, SKA2 / RFU, AFF3 / Fold change vs veh, AFF3 / RFU, LMF1 / Fold change vs veh, LMF1 / RFU, IPO11 / Fold change vs veh, IPO11 / RFU, DFFB / Fold change vs veh, DFFB / RFU, FOXP1 / Fold change vs veh, FOXP1 / RFU, CARD8 / Fold change vs veh, CARD8 / RFU, STRN3 / Fold change vs veh, STRN3 / RFU, ADK / Fold change vs veh, ADK / RFU, RASSF2 / Fold change vs veh, RASSF2 / RFU, WIPF1 / Fold change vs veh, WIPF1 / RFU, LARP1B / Fold change vs veh, LARP1B / RFU, RASA1 / Fold change vs veh, RASA1 / RFU, RB1 / Fold change vs veh, RB1 / RFU, PPFIA1 / Fold change vs veh, PPFIA1 / RFU, MAT2A / Fold change vs veh, MAT2A / RFU, CCT5 / Fold change vs veh, CCT5 / RFU, WDR92 / Fold change vs veh, WDR92 / RFU, CUX1 / Fold change vs veh, CUX1 / RFU, TTC7A / Fold change vs veh, TTC7A / RFU, TMEM135 / Fold change vs veh, TMEM135 / RFU, DEPTOR / Fold change vs veh, DEPTOR / RFU, CPM / Fold change vs veh, CPM / RFU, DNAJB6 / Fold change vs veh, DNAJB6 / RFU, CACNA2D3 / Fold change vs veh, CACNA2D3 / RFU, DTX4 / Fold change vs veh, DTX4 / RFU, TFCP2 / Fold change vs veh, TFCP2 / RFU, GMCL1 /// GMCL1P1 / Fold change vs veh, GMCL1 /// GMCL1P1 / RFU, AEBP2 / Fold change vs veh, AEBP2 / RFU, SNHG1 /// SNORD22 /// SNORD25 /// SNORD26 /// SNORD27 /// SNORD28 /// SNORD29 /// SNORD31 / Fold change vs veh, SNHG1 /// SNORD22 /// SNORD25 /// SNORD26 /// SNORD27 /// SNORD28 /// SNORD29 /// SNORD31 / Fold change (Aza/veh), C12orf56 (ProbeSet 11735607_a_at) / Fold change (ACY-1035/veh), C12orf56 (ProbeSet 11735607_a_at) / Fold change (Aza/veh), FGFR1OP (ProbeSet 11751329_s_at) / Fold change (ACY-1035/veh), FGFR1OP (ProbeSet 11751329_s_at) / Fold change (Aza/veh), VPS36 (ProbeSet 11739960_a_at) / Fold change (ACY-1035/veh), VPS36 (ProbeSet 11739960_a_at) / RFU SYPL1 (11715823_x_at) / Fold change /veh SYPL1 (11715823_x_at) / RFU IGFBP7 (11715501_s_at) / Fold change /veh IGFBP7 (11715501_s_at) / RFU REEP3 (11722064_at) / Fold change /veh REEP3 (11722064_at) / RFU IGLL1 (11728026_x_at) / Fold change /veh IGLL1 (11728026_x_at): dose or concentration left out as unconfirmed
Conditions: ProbeSet 11763895_x_at; LIST B

SMILES: Nc1ccc(-c2cccs2)cc1NC(=O)c1ccc2c(c1)cc(C1CC1)n2CCN1CCOCC1 [ACY-1035]
- Fold change vs veh, SNORA58: 0.89
